Data reported in patent publication US7259266B2, “Benzopyran compounds useful for treating inflammatory conditions” (Pharmacia Corporation, priority 2003, dated 2007).
Where “and” joins values, the source holds several entries; their conditions need not be identical. Equal entries are not always repeated.

Key:
COX-2 [1] = molecular target: T1, COX-2 (Homo sapiens, UniProt P35354); experiment: Modified assay for COX-2 activity (PGE2 formed, ELISA); type: biochemical, human or murine; settings: human COX-2, replicate tests on separate lines, read-out: hCox-2 Modified IC50
T1 construct: A 2.0 kb fragment containing the coding region of either human or murine COX-1 or human or murine COX-2; made in house; host or cells: SF9 insect cells (baculovirus, pVL1393)
T1 sequence (P35354 18-604): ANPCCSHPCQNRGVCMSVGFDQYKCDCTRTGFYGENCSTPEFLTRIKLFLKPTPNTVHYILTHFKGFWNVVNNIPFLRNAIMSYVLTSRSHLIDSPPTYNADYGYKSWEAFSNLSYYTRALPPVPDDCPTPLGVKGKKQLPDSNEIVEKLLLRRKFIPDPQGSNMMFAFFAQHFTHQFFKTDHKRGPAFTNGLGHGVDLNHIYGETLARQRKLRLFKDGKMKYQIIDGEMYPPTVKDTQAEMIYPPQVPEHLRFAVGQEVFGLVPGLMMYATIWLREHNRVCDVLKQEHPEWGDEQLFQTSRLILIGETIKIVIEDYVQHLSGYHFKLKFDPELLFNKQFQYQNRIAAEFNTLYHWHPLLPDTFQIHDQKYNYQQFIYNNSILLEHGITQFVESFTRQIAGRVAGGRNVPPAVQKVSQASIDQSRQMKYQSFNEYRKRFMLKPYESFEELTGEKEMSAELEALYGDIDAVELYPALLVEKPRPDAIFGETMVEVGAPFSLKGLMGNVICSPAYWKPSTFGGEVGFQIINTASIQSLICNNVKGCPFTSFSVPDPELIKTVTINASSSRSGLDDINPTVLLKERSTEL

COX-2 [2] = molecular target: T1, COX-2; experiment: Assay for COX-2 activity (PGE2 formed, ELISA); type: biochemical, human or murine; settings: human COX-2, standard assay, read-out: hCox-2 IC50

IC50 (COX-2 [1])	IC50 (COX-2 [2]; replicate tests on separate lines)	IC50 (COX-2 [2])	SMILES
29.3 nM and ≤ 137 nM	35.8 nM and ≤ 137 nM	–	O=C(O)C1=Cc2cc(Cl)c(Oc3ccc4c(c3)OCO4)cc2O[C@H]1C(F)(F)F (single isomer, unassigned) [Example 958a]
–	–	> 500000 nM	CCCOc1c(Cl)cc(Cl)c2c1OC(C(F)(F)F)C(C(=O)O)=C2 (stereo not shown) [Example 23f, 5,7-dichloro-8-propoxy-2-(trifluoromethyl)-2H-chromene-3-carboxylic acid]
–	–	> 33300 nM	Nc1c(Cl)cc(Oc2cccc3c2OC(C(F)(F)F)C(C(=O)O)=C3)c(F)c1Cl (stereo not shown) [Example 25d, 8-(4-amino-3,5-dichloro-2-fuorophenoxy)-2-(trifluoromethyl)-2H-chromene-3-carboxylic acid]
